The numbers were not newly measured in publication PMC3734799 (ChemMedChem, 2011), which cites them from elsewhere.

As usually defined, the Km is the concentration of substrate that gives half-maximal velocity.

Structures are written as SMILES.

The target in this data set is YopH (Yersinia pestis, UniProt O68720).
Chain of YopH (O68720 164-468 limits assumed): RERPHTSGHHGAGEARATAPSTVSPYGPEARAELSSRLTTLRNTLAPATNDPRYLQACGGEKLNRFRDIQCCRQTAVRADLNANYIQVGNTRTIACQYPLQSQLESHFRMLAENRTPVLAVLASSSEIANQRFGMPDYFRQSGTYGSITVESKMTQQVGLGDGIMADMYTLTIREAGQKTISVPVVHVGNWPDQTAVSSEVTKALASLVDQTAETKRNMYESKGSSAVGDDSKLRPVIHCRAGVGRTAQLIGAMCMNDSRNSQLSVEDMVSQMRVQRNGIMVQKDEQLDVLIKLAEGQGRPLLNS

With `O=[N+]([O-])c1ccc(OP(=O)(O)O)cc1-c1ccccc1` [compound 1, 6-nitro-[1,1'-biphenyl]-3-yl dihydrogen phosphate], the Michaelis-Menten constant (Km) is 80 µM.
